Toxic doses and inconclusive results are not listed.
Test system: CD2F1 mice, L1210 leukemia ip, survival T/C
Assay: NCI In Vivo Anticancer Drug Screen. Data for tumor model L1210 Leukemia (intraperitoneal) in CD2F1 (CDF1) mice
Conditions: endpoint: mean survival time, higher = longer survival
In short: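 Each value reflects a quotient of treated over vehicle control outcomes in mice with a transplanted tumor.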

[1] = dose: 25.0 mg/kg/injection, schedule: Q04DX003 (ip), vehicle: saline with Tween-80
[2] = dose: 50.0 mg/kg/injection, schedule: Q04DX002 (ip), vehicle: saline with Tween-80
[3] = dose: 100.0 mg/kg/injection, schedule: Q04DX002 (ip), vehicle: saline with Tween-80
[4] = dose: 25.0 mg/kg/injection, schedule: Q01DX009 (ip), vehicle: saline with Tween-80
[5] = dose: 50.0 mg/kg/injection, schedule: Q01DX009 (ip), vehicle: saline with Tween-80
[6] = dose: 100.0 mg/kg/injection, schedule: Q01DX009 (ip), vehicle: saline with Tween-80
[7] = dose: 12.5 mg/kg/injection, schedule: Q01DX009 (ip), vehicle: saline with Tween-80

Question: Which results are given for `COC(=O)c1cc([N+](=O)[O-])cc([N+](=O)[O-])c1Sc1ncnc2nc[nH]c12`?
Answer: T/C (dose: 0.63 mg/kg/injection, schedule: Q01DX005 (ip), vehicle: other): 100 % of control; T/C (dose: 1.25 mg/kg/injection, schedule: Q01DX005 (ip), vehicle: other): 100 % of control; T/C (dose: 2.5 mg/kg/injection, schedule: Q01DX005 (ip), vehicle: other): 107 % of control; T/C (dose: 5.0 mg/kg/injection, schedule: Q01DX005 (ip), vehicle: other): 112 % of control; T/C (dose: 10.0 mg/kg/injection, schedule: Q01DX005 (ip), vehicle: other): 112 % of control; T/C (dose: 40.0 mg/kg/injection, schedule: Q01DX005 (ip), vehicle: other): 95 % of control

Question: Which results are given for `O=C(O)C(=O)O.[NH-]CC1CCCC[N-]1.[Pt+2]` (stereo not drawn)?
Answer: T/C (dose: 12.5 mg/kg/injection, schedule: Q04DX003 (ip), vehicle: saline with Tween-80): 164 % of control; T/C [1]: 201 % of control; T/C (dose: 50.0 mg/kg/injection, schedule: Q04DX003 (ip), vehicle: saline with Tween-80): 238 % of control

Question: How did the T/C (dose: 100.0 mg/kg/injection, schedule: Q04DX003 (ip), vehicle: saline with Tween-80) turn out when `CCCCCCCCCCCCCCCC(=O)N(CCCN)c1ccc(N(CCCN)C(=O)CCCCCCCCCCCCCCC)cc1` was run?
Answer: 98 % of control

Question: And the T/C (dose: 200.0 mg/kg/injection, schedule: Q04DX003 (ip), vehicle: saline with Tween-80)?
Answer: 98 % of control

Question: What about the T/C (dose: 400.0 mg/kg/injection, schedule: Q04DX003 (ip), vehicle: saline with Tween-80) of the same molecule?
Answer: 97 % of control

Question: How did the T/C (dose: 25.0 mg/kg/injection, schedule: Q04DX002 (ip), vehicle: saline with Tween-80) turn out when `CC(=O)CC(=O)Nc1nccs1` was run?
Answer: 110 % of control

Question: And the T/C [2]?
Answer: 107 % of control

Question: And the T/C [3]?
Answer: 93 % of control

Question: With `CC(O)C(NC(=O)c1cnc(=O)[nH]c1N)C(=O)O` (stereo not drawn) as the molecule, how does the T/C [4] read?
Answer: 105 % of control

Question: What about the T/C [5] of the same molecule?
Answer: 102 % of control

Question: What about the T/C [6] of the same molecule?
Answer: 102 % of control

Question: For `C(=Nc1ccc2ccccc2c1)c1ccccc1`, which T/C [2] is on record?
Answer: 91 % of control

Question: What about the T/C [3] of the same molecule?
Answer: 95 % of control

Question: And the T/C (dose: 200.0 mg/kg/injection, schedule: Q04DX002 (ip), vehicle: saline with Tween-80)?
Answer: 95 % of control

Question: And the T/C (dose: 400.0 mg/kg/injection, schedule: Q04DX002 (ip), vehicle: saline with Tween-80)?
Answer: 98 % of control

Question: For `C[Si](C)(C)Oc1cc(N=NNC2=CC(=O)c3ccccc3C2=O)c(O)c2ccccc12`, which T/C [7] is on record?
Answer: 95 % of control

Question: And the T/C [4]?
Answer: 98 % of control

Question: And the T/C [5]?
Answer: 95 % of control

Question: With `CCCC1CC[N-]CC1.CCCC1CC[N-]CC1.[Cl][Pt+2]([Cl])([Cl])[Cl]` as the molecule, how does the T/C (dose: 12.5 mg/kg/injection, schedule: Q01DX009 (ip), vehicle: saline sonified) read?
Answer: 114 % of control

Question: What about the T/C [1] of the same molecule?
Answer: 98 % of control

Question: Which results are given for `CCCCCCCCCCSCC`?
Answer: T/C (dose: 100.0 mg/kg/injection, schedule: Q01DX009 (ip), vehicle: saline): 101 % of control; T/C (dose: 100.0 mg/kg/injection, schedule: Q04DX003 (ip), vehicle: saline): 103 % of control; T/C (dose: 200.0 mg/kg/injection, schedule: Q01DX009 (ip), vehicle: saline): 104 % of control; T/C (dose: 200.0 mg/kg/injection, schedule: Q04DX003 (ip), vehicle: saline): 103 % of control; T/C (dose: 400.0 mg/kg/injection, schedule: Q01DX009 (ip), vehicle: saline): 101 % of control; T/C (dose: 400.0 mg/kg/injection, schedule: Q04DX003 (ip), vehicle: saline): 103 % of control

Question: `CCOC(=O)C1C(=O)NC(=O)N1Cc1ccccc1` (stereo not drawn) was tested. Which T/C (dose: 12.5 mg/kg/injection, schedule: Q01DX009 (ip), vehicle: other) did it give?
Answer: 100 % of control

Question: And the T/C (dose: 25.0 mg/kg/injection, schedule: Q01DX009 (ip), vehicle: other)?
Answer: 104 % of control

Question: And the T/C (dose: 50.0 mg/kg/injection, schedule: Q01DX009 (ip), vehicle: other)?
Answer: 100 % of control

Question: And the T/C (dose: 100.0 mg/kg/injection, schedule: Q01DX009 (ip), vehicle: other)?
Answer: 97 % of control

Question: What about the T/C (dose: 200.0 mg/kg/injection, schedule: Q01DX009 (ip), vehicle: other) of the same molecule?
Answer: 100 % of control

Question: How did the T/C (dose: 6.25 mg/kg/injection, schedule: Q01DX009 (ip), vehicle: saline with Tween-80) turn out when `CN(C)CCCN=Cc1cc(Cl)ccc1O.CN(C)CCCN=Cc1cc(Cl)ccc1O.[Ni+2]` was run?
Answer: 93 % of control

Question: What about the T/C [7] of the same molecule?
Answer: 93 % of control

Question: What about the T/C [4] of the same molecule?
Answer: 100 % of control

Question: With `O=C(O)c1ccccc1C(c1ccccc1)c1ccccc1` as the molecule, how does the T/C [5] read?
Answer: 94 % of control

Question: And the T/C [6]?
Answer: 94 % of control
